According to patent US12209102B2, “Heterocyclic compounds and uses thereof” (Kumquat Biosciences Inc., priority 2022, dated 2025):

Experiments:
GP2D cells = experiment: Ras cellular assay, growth of cells with K-Ras G12D mutation (CellTiter-Glo); type: cell-based; conditions: cell growth, Example 9, G12D mutation, read-out: IC50 against GP2D cells
K-Ras G12D = biological target: T1, K-Ras G12D (Homo sapiens, UniProt P01116, G12D); experiment: HTRF resonance energy transfer assay, K-Ras G12D / SOS1 interaction; type: biochemical; conditions: HTRF assay of Example 5; read-out: IC50 against K-Ras G12D
T1 construct: made in house; host or cells: E. coli BL21 (DE3)
Procedure, shortened: (§1)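 Buffer about 5 mM HEPES pH 7.4 with ~150 mM NaCl, ~1 mM DTT, 0.05% BSA, 0.0025% (v/v) Igepal. Protein constructs used at molarity matching the IC50 range studied (e.g. ~500 nM). FRET between tagged K-Ras and hSOS1 measured after short incubation.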

K-Ras WT = biological target: T2, K-Ras WT (Homo sapiens, UniProt P01116); experiment: HTRF resonance energy transfer assay, K-Ras WT / SOS1 interaction; type: biochemical; conditions: HTRF assay of Example 5; read-out: IC50 against K-Ras WT
T2 construct: made in house; host or cells: E. coli BL21 (DE3)
Procedure, shortened: as §1

A549 cells = experiment: Ras cellular assay, growth of cells with K-Ras G12S mutation (CellTiter-Glo); type: cell-based; conditions: Homo sapiens, cell growth, Example 9, G12S mutation, read-out: IC50 against A549 cells
Procedure, shortened: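 Growth inhibition IC50 values come from four-parameter fits of CellTiter-Glo luminescence, read about 6 days after compound addition. G12S-mutant A549 cells (e.g. 800/well, RPMI-1640 + 10% heat-inactivated FBS) were plated in tissue-culture-treated or ultra-low-attachment 384-well format. Dosing began the following day with serial dilutions, e.g. 10 points, 3-fold.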

SW620 cells = experiment: Ras cellular assay, growth of cells with K-Ras G12V mutation (CellTiter-Glo); type: cell-based; conditions: Homo sapiens, SW-620; cell growth, Example 9, G12V mutation; read-out: IC50 against SW620 cells
Procedure, shortened: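 IC50 values came from a four-parameter fit of CellTiter-Glo viability, read roughly 6 days after dosing with e.g. a 10-point threefold dilution series. G12V-mutant SW620 cells (e.g. 800 per well) had been plated the previous day in RPMI-1640/10% heat-inactivated FBS, on tissue culture-treated or ultra-low attachment plates.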

K-Ras G12S = biological target: T3, K-Ras G12S (Homo sapiens, UniProt P01116, G12S); experiment: HTRF resonance energy transfer assay, K-Ras G12S / SOS1 interaction; type: biochemical; conditions: HTRF assay of Example 5; read-out: IC50 against K-Ras G12S
T3 construct: made in house; host or cells: E. coli BL21 (DE3)
Procedure, shortened: as §1

K-Ras G12V = biological target: T4, K-Ras G12V (Homo sapiens, UniProt P01116, G12V); experiment: HTRF resonance energy transfer assay, K-Ras G12V / SOS1 interaction; type: biochemical; conditions: HTRF assay of Example 5; read-out: IC50 against K-Ras G12V
T4 construct: made in house; host or cells: E. coli BL21 (DE3)
Procedure, shortened: as §1

T1 sequence (P01116 1-188 isoform P01116-2 G12D): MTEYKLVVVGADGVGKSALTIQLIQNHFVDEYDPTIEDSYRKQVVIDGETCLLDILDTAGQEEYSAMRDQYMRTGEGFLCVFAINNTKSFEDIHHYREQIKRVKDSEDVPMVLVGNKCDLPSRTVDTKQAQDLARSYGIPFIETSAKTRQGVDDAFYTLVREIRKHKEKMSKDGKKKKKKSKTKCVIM
T2 sequence (P01116 1-188 isoform P01116-2): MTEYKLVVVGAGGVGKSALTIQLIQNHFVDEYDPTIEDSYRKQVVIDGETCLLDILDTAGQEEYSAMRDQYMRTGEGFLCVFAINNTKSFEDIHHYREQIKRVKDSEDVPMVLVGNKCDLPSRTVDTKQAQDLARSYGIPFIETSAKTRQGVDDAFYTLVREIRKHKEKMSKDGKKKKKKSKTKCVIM
T4 sequence (P01116 1-188 isoform P01116-2 G12V): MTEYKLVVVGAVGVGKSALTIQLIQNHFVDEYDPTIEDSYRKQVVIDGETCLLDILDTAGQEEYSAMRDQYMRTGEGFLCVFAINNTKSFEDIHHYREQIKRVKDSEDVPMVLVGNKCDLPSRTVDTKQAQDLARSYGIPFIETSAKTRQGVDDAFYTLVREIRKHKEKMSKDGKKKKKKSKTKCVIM
T3 sequence (P01116 1-188 isoform P01116-2 G12S): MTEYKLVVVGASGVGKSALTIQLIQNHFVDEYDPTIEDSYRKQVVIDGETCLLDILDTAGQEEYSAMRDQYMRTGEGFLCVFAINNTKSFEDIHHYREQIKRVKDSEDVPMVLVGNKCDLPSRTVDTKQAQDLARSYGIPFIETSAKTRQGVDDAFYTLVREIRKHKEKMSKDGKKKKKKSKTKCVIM

Row | Structure (SMILES) | IC50 (K-Ras G12D) [µM] | IC50 (K-Ras WT) [µM] | IC50 (A549 cells) [µM] | IC50 (SW620 cells) [µM] | IC50 (K-Ras G12S) [µM] | IC50 (K-Ras G12V) [µM] | IC50 (GP2D cells) [µM]
1 | CN(CCN1CCOc2c(Cl)c(-c3ccc(F)c4sc(N)c(C#N)c34)c(F)c3nc(OC[C@@]45CCCN4C[C@H](F)C5)nc1c23)C(=O)[C@@H]1N[C@H]1C1CC1 [Compound 613, (2R,3S)-N-(2-(9-(2-amino-3-cyano-7-fluorobenzo[b]thiophen-4-yl)-8-chloro-10-fluoro-2-(((2R,7aS)-2-fluorotetrahydro-1H-pyrrolizin-7a(5H)-yl)methoxy)-5,6-dihydro-4H-[1,4]oxazepino[5,6,7-de]quinazolin-4-yl)ethyl)-3-cyclopropyl-N-methylaziridine-2-carboxamide] | < 0.1 | < 0.1 | < 5 | < 5 | < 0.1 | < 0.1 | < 0.5
2 | N#Cc1c(N)sc2c(F)ccc(-c3c(Cl)c4c5c(nc(OC[C@@]67CCCN6C[C@H](F)C7)nc5c3F)N(C3CCC(C(F)F)C3)CCO4)c12 (stereo partly drawn) [Compound 718, 2-amino-4-(8-chloro-4-(3-(difluoromethyl)cyclopentyl)-10-fluoro-2-(((2R,7aS)-2-fluorotetrahydro-1H-pyrrolizin-7a(5H)-yl)methoxy)-5,6-dihydro-4H-[1,4]oxazepino[5,6,7-de]quinazolin-9-yl)-7-fluorobenzo[b]thiophene-3-carbonitrile] | < 0.1 | < 0.1 | < 5 | < 5 | < 0.1 | < 0.1 | < 0.5
3 | N#Cc1c(N)sc2c(F)ccc(-c3c(Cl)c4c5c(nc(OC[C@@]67CCCN6C[C@H](F)C7)nc5c3F)N(CC(F)F)C(CCO)CO4)c12 (single isomer, unassigned) [Compound 1049] | < 0.1 | < 0.1 | < 5 | < 5 | < 0.1 | < 0.1 | < 0.5
4 | N#Cc1c(N)sc2c(F)ccc(-c3c(Cl)c4c5c(nc(OC[C@@]67CCCN6C[C@H](F)C7)nc5c3F)N(CC(F)F)C(CC(F)F)CO4)c12 (stereo partly drawn) [Compound 701, 2-amino-4-(8-chloro-4,5-bis(2,2-difluoroethyl)-10-fluoro-2-(((2R,7aS)-2-fluorotetrahydro-1H-pyrrolizin-7a(5H)-yl)methoxy)-5,6-dihydro-4H-[1,4]oxazepino[5,6,7-de]quinazolin-9-yl)-7-fluorobenzo[b]thiophene-3-carbonitrile] | < 0.1 | < 0.1 | < 5 | < 5 | < 0.1 | < 0.1 | < 0.5
5 | N#Cc1c(N)sc2c(F)ccc(-c3c(Cl)c4c5c(nc(OC[C@@]67CCCN6C[C@H](F)C7)nc5c3F)N(C3CCN(C(=O)COC5CC5)C3)CCO4)c12 (stereo partly drawn) [Compound 812, 2-amino-4-(8-chloro-4-(1-(2-cyclopropoxyacetyl)pyrrolidin-3-yl)-10-fluoro-2-(((2R,7aS)-2-fluorotetrahydro-1H-pyrrolizin-7a(5H)-yl)methoxy)-5,6-dihydro-4H-[1,4]oxazepino[5,6,7-de]quinazolin-9-yl)-7-fluorobenzo[b]thiophene-3-carbonitrile] | < 0.1 | < 0.1 | < 5 | < 5 | < 0.1 | < 0.1 | < 0.5
6 | N#Cc1c(N)sc2c(F)ccc(-c3c(Cl)c4c5c(nc(OC[C@@]67CCCN6C[C@H](F)C7)nc5c3F)N(CC(F)F)CC(CO)O4)c12 (stereo partly drawn) [Compound 1002, 2-amino-4-(8-chloro-4-(2,2-difluoroethyl)-10-fluoro-2-(((2R,7aS)-2-fluorotetrahydro-1H-pyrrolizin-7a(5H)-yl)methoxy)-6-(hydroxymethyl)-5,6-dihydro-4H-[1,4]oxazepino[5,6,7-de]quinazolin-9-yl)-7-fluorobenzo[b]thiophene-3-carbonitrile] | < 0.1 | < 0.1 | < 5 | < 5 | < 0.1 | < 0.1 | < 0.5
7 | N#Cc1c(N)sc2c(F)ccc(-c3c(Cl)c4c5c(nc(OC[C@@]67CCCN6C[C@H](F)C7)nc5c3F)N(C3CCN(C(=O)C[C@H]5CCCO5)C3)CCO4)c12 (stereo partly drawn) [Compound 1024, 2-amino-4-(8-chloro-10-fluoro-2-(((2R,7aS)-2-fluorotetrahydro-1H-pyrrolizin-7a(5H)-yl)methoxy)-4-(1-(2-((R)-tetrahydrofuran-2-yl)acetyl)pyrrolidin-3-yl)-5,6-dihydro-4H-[1,4]oxazepino[5,6,7-de]quinazolin-9-yl)-7-fluorobenzo[b]thiophene-3-carbonitrile] | < 0.1 | < 0.1 | < 5 | < 5 | < 0.1 | < 0.1 | < 0.5

Second part, led by results:

Row | IC50 (K-Ras G12D) [µM] | IC50 (K-Ras WT) [µM] | IC50 (A549 cells) [µM] | IC50 (SW620 cells) [µM] | IC50 (K-Ras G12S) [µM] | IC50 (K-Ras G12V) [µM] | Structure (SMILES) | IC50 (GP2D cells) [µM]
8 | < 0.1 | < 0.1 | < 5 | < 5 | < 0.1 | < 0.1 | N#Cc1c(N)sc2c(F)ccc(-c3c(Cl)c4c5c(nc(OC[C@@]67CCCN6C[C@H](F)C7)nc5c3F)N(C3CCN(C(=O)[C@H]5CCCO5)C3)CCO4)c12 (stereo partly drawn) [Compound 705, 2-amino-4-(8-chloro-10-fluoro-2-(((2R,7aS)-2-fluorotetrahydro-1H-pyrrolizin-7a(5H)-yl)methoxy)-4-(1-((R)-tetrahydrofuran-2-carbonyl)pyrrolidin-3-yl)-5,6-dihydro-4H-[1,4]oxazepino[5,6,7-de]quinazolin-9-yl)-7-fluorobenzo[b]thiophene-3-carbonitrile] | < 0.5
9 | < 0.1 | < 0.1 | < 5 | < 5 | < 0.1 | < 0.1 | N#Cc1c(N)sc2c(F)ccc(-c3c(Cl)c4c5c(nc(OC[C@@]67CCCN6C[C@H](F)C7)nc5c3F)N(C3CCCN(C(=O)C(F)F)C3)CCO4)c12 (stereo partly drawn) [Compound 998, 2-amino-4-(8-chloro-4-(1-(2,2-difluoroacetyl)piperidin-3-yl)-10-fluoro-2-(((2R,7aS)-2-fluorotetrahydro-1H-pyrrolizin-7a(5H)-yl)methoxy)-5,6-dihydro-4H-[1,4]oxazepino[5,6,7-de]quinazolin-9-yl)-7-fluorobenzo[b]thiophene-3-carbonitrile] | < 0.5
10 | < 0.1 | < 0.1 | < 5 | < 5 | < 0.1 | < 0.1 | N#Cc1c(N)sc2c(F)ccc(-c3c(Cl)c4c5c(nc(OC[C@@]67CCCN6C[C@H](F)C7)nc5c3F)N([C@@H]3CCN(C(=O)C(F)F)C3)CCO4)c12 [Compound 796, 2-amino-4-(8-chloro-4-((R)-1-(2,2-difluoroacetyl)pyrrolidin-3-yl)-10-fluoro-2-(((2R,7aS)-2-fluorotetrahydro-1H-pyrrolizin-7a(5H)-yl)methoxy)-5,6-dihydro-4H-[1,4]oxazepino[5,6,7-de]quinazolin-9-yl)-7-fluorobenzo[b]thiophene-3-carbonitrile] | < 0.5
11 | < 0.1 | < 0.1 | < 5 | < 5 | < 0.1 | < 0.1 | C[C@H](O)[C@H]1COc2c(Cl)c(-c3ccc(F)c4sc(N)c(C#N)c34)c(F)c3nc(OC[C@@]45CCCN4C[C@H](F)C5)nc(c23)N1CC(F)F [Compound 817, 2-amino-4-((5R)-8-chloro-4-(2,2-difluoroethyl)-10-fluoro-2-(((2R,7aS)-2-fluorotetrahydro-1H-pyrrolizin-7a(5H)-yl)methoxy)-5-((S)-1-hydroxyethyl)-5,6-dihydro-4H-[1,4]oxazepino[5,6,7-de]quinazolin-9-yl)-7-fluorobenzo[b]thiophene-3-carbonitrile] | < 0.5
12 | < 0.1 | < 0.1 | < 5 | < 5 | < 0.1 | < 0.1 | N#Cc1c(N)sc2c(F)ccc(-c3c(Cl)c4c5c(nc(OC[C@@]67CCCN6C[C@H](F)C7)nc5c3F)N(C3CCN(C(=O)C[C@@H]5CCOC5)C3)CCO4)c12 (stereo partly drawn) [Compound 699, 2-amino-4-(8-chloro-10-fluoro-2-(((2R,7aS)-2-fluorotetrahydro-1H-pyrrolizin-7a(5H)-yl)methoxy)-4-(1-(2-((S)-tetrahydrofuran-3-yl)acetyl)pyrrolidin-3-yl)-5,6-dihydro-4H-[1,4]oxazepino[5,6,7-de]quinazolin-9-yl)-7-fluorobenzo[b]thiophene-3-carbonitrile] | < 0.5
